Like-named read-outs stand apart in the source and are kept apart here.
Tests used:
[1] = Kinetic aqueous solubility, turbidimetric assay; type: physicochemical; conditions: turbidimetric assay, buffer not named
Description: The kinetic solubility of the complexes was determined by means of a turbidimetric assay. The complexes were first dissolved in dimethyl sulfoxide (DMSO) which was then serially diluted in either phosphate buffered saline (PBS) or 4-(2-hydroxyethyl)-1-piperazineethanesulfonic acid (HEPES). The extent of precipitation was then measured using the absorbance at 620 nm.
PBS was prepared by dissolving one PBS tablet in 200 mL of distilled water at 25 °C yielding a buffered solution containing 10 mM phosphate buffer, 3.0 mM KCl and 140 mM NaCl. The pH was then confirmed to be at 7.4 with a pH meter. A 0.025 M HEPES buffer was prepared by dissolving HEPES free acid 5.00 mmol in distilled water (±180 mL) and titrating the solution with 0.100 M NaOH until a pH 7 was reached, the volume was then made up to 200 mL using distilled water. A 10.0 mM stock of each drug was prepared in DMSO. […] 4 μL of the drugs was then pipetted into a 96-well plate loaded with 196 μL of either the desired buffer solution or DMSO. The test plates were then incubated at 37 °C for 4 hours following which the UV-Vis absorbance was measured at 620 nm and the absorbances corrected by subtracting the blank.

[2] = tested on: T. gondii (ΔKu80::mNeonGreen); assay: T. gondii growth inhibition assay (mNeonGreen fluorescence); type: cell-based, Toxoplasma gondii; conditions: three independent experiments in triplicate, ± SEM
Description: […]. The rate of hydrolysis of C2 and C4 is closely correlated to the activity seen against T. gondii, such that the more readily the complex separates into its constituents, parts the better the overall activity.
To further investigate whether the accumulation of ROS was implicated in the MoA, the growth inhibition studies were repeated in the presence of the ROS scavenger N-acetyl cysteine (NAC) (Table 5).
Growth inhibition assays were performed in black, clear-bottomed 96 well plates preseeded with Human foreskin fibroblasts (HFFs) as described previously.[48] ΔKu80:mNeonGreen T. gondii were counted using a hemeocytometer and media from the host-cell seeded plate was aspirated and replaced with either 200 μL of D3 or 200 μL of media + 5000 parasites per well. Infected cells were incubated for 2 hours at 37 °C with 5% CO2 to allow for invasion. Following this, the media was removed and replaced with 100 μL fresh media. 100 μL of media containing 100 μM of the indicated drug in sterile DMSO was added and serially diluted. The parasites were then incubated for four days at 37 °C with 5% CO2 then flourescense read using the PHERAstar microplate reader. After removal of background, fluorescence values were normalised to untreated and plotted. Data analysis and non-linear regression was performed in Prism.

PNT1A cells = assay: MTT cell viability assay, PNT1A; type: cell-based, human; conditions: 48 h
Description: To assess the cytotoxicity of the four compounds a MTT cell viability assay using human embryonic kidney (HEK293) and human prostatic (PNT1A) cell lines were performed. […] The long chain compounds C1 and C3 were also shown to be non-cytotoxic towards the HEK293 cell line.
The immortalised human prostatic epithelial cell line, PNT1A (Sigma Aldrich, 95012614) was cultured in RPMI-1640 containing 10% foetal calf serum (Life Technologies, South Africa). The human embryonic kidney cell line HEK293 (ATCC) was cultured in DMEM (Life Technologies, South Africa). Both cell lines were cultured at 37 °C under 5% CO2 with 1% penicillin and streptomycin. Cancer cell cytotoxicity was evaluated using the MTT viability assay according to our previous method.[49] Briefly, cells were seeded at a density of 3 × 10^3 cells per well in 96-well plates and allowed to settle overnight. A 100 mM stock of C1/C2 and a 50 mM stock solution of C3/C4 in DMSO was prepared from which dilutions were made. The compound was then added to the cells in triplicate to obtain the indicated concentrations and 0.1% DMSO. Controls included cells treated with […] DMSO alone. After 48 h, 10 μL of 5 mg mL^−1 MTT (3-(4,5-dimethylthiazol-2-yl)-2,5-diphenyltetrazolium bromide) (Sigma-Aldrich) was added, and incubated with the cells for 4 h, followed by addition of 100 μL 10% SLS, 0.01 M HCL. The plates were read at 595 nm on a Multiscan FC plate reader (Thermo Scientific) and the data was fitted to a variable slope dose–response curve using Graphpad prism v6 to obtain the cytotoxicity IC50. The assay was repeated independently three times where inhibition was observed.

T. gondii (ΔKu80:mNeon) = assay: Immunofluorescence microscopy of intracellular T. gondii; type: cell-based, Toxoplasma gondii; conditions: 5 μM; for Parasite replication: 24 hours
Description: To determine morphological changes associated with drug treatment, immunofluorescence microscopy of T. gondii was performed after 24 hours or 48 hours of drug treatment at a concentration of 5 μM.
Since artemisinin has previously been reported to accumulate in the membrane of P. falciparum due to its affinity for neutral lipids,[46] it was hypothesized that the complex C3 may be doing the same thing in T. gondii. Then, upon activation of the endoperoxide bridge, this causes oxidative damage to the membranes, leading to disruption and release of parasite cytosolic contents.
Coverslips preseeded with HFF cells were infected with ΔKu80:mNeonGreen and incubated at 37 °C for 1 h to allow invasion. Following this, drug (5 μM) was added, and the plates placed back in the incubator for 24 hours. Cells were washed with 1 mL of sterile PBS, which was then again removed and 500 μL of 4% paraformaldehyde (PFA) was added and incubated at room temperature for 20 minutes. The PFA was removed, cell washed once with PBS. Cells were blocked and permeabilisated with incubation 500 μL of 2% bovine serum albubin (BSA), 0.5% Triton X-100 in PBD overnight at 4 °C. The coverslips were then removed and submerged in distilled water three times and mounted using Fluoromount with DAPI (Southern Biotech). The slides were then visualized using a DeltaVision fluorescent microscope (Applied Precision) and processed using SoftWoRx and FIJI software.

[3] = Stability on HPLC in an aqueous environment; type: physicochemical; conditions: aqueous environment (H2O/MeOH)
Description: Resonances belonging to the unsubstituted cyclopentadienyl ring of the ferrocene appeared as a singlet between 4.17 and 4.20 ppm and two triplets which correspond to the substituted ring.
Purity analysis was performed on an Agilent 1260 Infinity II high-performance liquid chromatography (HPLC) system with a DAD detector. A Kinetex C18 100 Å column was used with dimensions, 150 × 4.6 mm with a 5 μm […]. A mobile phase of (A) H2O (B) MeOH was used at gradients of t = 0 min 10% B, t = 15 min 80% B, t = 35 min 80% B, t = 37 min 10% B and t = 45 min 10% B over a 45 min period. The flow rate was set to 1 mL min^−1, and the detection wavelength was set at 260 nm with the reference wavelength at 360 nm. 50 μL sample was injected, with needle washes of MeOH between injections. The peaks were manually integrated to gain the percentage area. Samples were dissolved in 10% MeOH/90% H2O at 100 μM concentrations.

[4] = tested on: P. falciparum 3D7 (chloroquine sensitive); design: method as in doi:10.1016/j.jorganchem.2023.122633; conditions: chloroquine sensitive strain; cited from earlier work
[5] = four days, in HFF host cells, read-out: IC50 against T. gondii
[6] = with 5 mM NAC (ROS scavenger), read-out: IC50 + NAC against T. gondii

Row | SMILES | Solubility range [1] [µg/mL] | IC50 [2, 5] [nM] | IC50 [2, 6] [nM] | IC50 (PNT1A cells) [nM] | Parasite replication (T. gondii (ΔKu80:mNeon)) | Aqueous solubility [1] [µM] | Stability on HPLC [3] | Activity against P. falciparum 3D7 [4] [nM] | Parasite morphology (T. gondii (ΔKu80:mNeon); 24 hours or 48 hours)
1 | CC1CCC2C(C)C(OC(=O)CCC(=O)OCCNC(=O)[c-]3cccc3)OC3OC4(C)CCC1C32OO4.[Fe+2].c1cc[cH-]c1 (centres unmarked) [Compound C1] | 25 to 51 | 680 ± 31 | 830 ± 130 | > 100000 | completely block replication |  |  |  | 
2 | CC1CCC2C(C)C(OC(=O)CCC(=O)NC[c-]3cccc3)OC3OC4(C)CCC1C32OO4.[Fe+2].c1cc[cH-]c1 (centres unmarked) [Compound C4] | 3 to 6 | 600 ± 35 | 1200 ± 179 | > 50000 |  | 5 to 10 | high degree of instability | 6.1 | 
3 | CC1CCC2C(C)C(OC(=O)CCC(=O)NCCNC(=O)[c-]3cccc3)OC3OC4(C)CCC1C32OO4.[Fe+2].c1cc[cH-]c1 (centres unmarked) [Compound C3] | 3 to 6 | 1200 ± 64 | 1500 ± 140 | > 50000 | completely block replication | 5 to 10 | high degree of instability |  | novel morphology
